Key:
[1] = biological target: T1, mouse TAAR1 (Mus musculus, UniProt Q923Y8); assay: Radioligand binding, mouse TAAR1 ([3H]RO5166017)
T1 construct: expressed in transfected cells; host or cells: HEK 293 (membrane preparation)

[2] = biological target: T2, 5-HT2C receptor (Homo sapiens, UniProt P28335); assay: biochemical; format: binding; conditions: for Ki: [3H]mesulgerine, read-out: h5-HT2C Receptor binding Ki ± SD
T2 construct: expressed in transfected cells; host or cells: HEK 293 (membrane preparation)
T2 sequence (P28335 33-458): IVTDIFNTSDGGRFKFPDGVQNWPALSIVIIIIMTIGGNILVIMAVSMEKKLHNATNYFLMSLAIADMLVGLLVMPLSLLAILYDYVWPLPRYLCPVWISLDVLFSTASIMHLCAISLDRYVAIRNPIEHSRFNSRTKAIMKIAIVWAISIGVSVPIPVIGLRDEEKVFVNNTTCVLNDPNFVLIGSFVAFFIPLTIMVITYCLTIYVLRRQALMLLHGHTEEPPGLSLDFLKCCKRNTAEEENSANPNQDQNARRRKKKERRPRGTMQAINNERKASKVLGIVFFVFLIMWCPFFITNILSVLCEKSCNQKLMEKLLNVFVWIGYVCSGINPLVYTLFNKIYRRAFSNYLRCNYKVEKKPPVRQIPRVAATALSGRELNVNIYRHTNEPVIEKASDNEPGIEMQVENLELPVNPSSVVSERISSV

[3] = biological target: T3, 5-HT1A receptor (Homo sapiens, UniProt P08908); assay: Radioligand binding, 5-HT1A receptor ([3H]8-OH-DPAT)
T3 construct: expressed in transfected cells; host or cells: HEK 293 (membrane preparation)
T3 sequence (P08908 1-422): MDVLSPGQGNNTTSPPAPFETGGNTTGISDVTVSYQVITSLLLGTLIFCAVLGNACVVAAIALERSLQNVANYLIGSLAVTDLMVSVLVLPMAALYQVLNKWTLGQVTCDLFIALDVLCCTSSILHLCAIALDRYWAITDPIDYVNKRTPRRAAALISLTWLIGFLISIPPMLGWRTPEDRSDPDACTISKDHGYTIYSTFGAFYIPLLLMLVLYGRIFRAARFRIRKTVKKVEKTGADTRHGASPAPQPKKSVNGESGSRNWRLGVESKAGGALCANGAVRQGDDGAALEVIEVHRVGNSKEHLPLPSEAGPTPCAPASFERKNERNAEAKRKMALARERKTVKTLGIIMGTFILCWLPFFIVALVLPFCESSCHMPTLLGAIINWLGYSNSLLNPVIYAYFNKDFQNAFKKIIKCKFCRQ

[4] = biological target: T4, α2A adrenergic receptor (Homo sapiens, UniProt P08913); assay: Radioligand binding, α2A adrenergic receptor ([3H]rauwolscine)
T4 construct: expressed in transfected cells; host or cells: Chinese hamster lung cell line (membrane preparation)
T4 sequence (P08913 1-465): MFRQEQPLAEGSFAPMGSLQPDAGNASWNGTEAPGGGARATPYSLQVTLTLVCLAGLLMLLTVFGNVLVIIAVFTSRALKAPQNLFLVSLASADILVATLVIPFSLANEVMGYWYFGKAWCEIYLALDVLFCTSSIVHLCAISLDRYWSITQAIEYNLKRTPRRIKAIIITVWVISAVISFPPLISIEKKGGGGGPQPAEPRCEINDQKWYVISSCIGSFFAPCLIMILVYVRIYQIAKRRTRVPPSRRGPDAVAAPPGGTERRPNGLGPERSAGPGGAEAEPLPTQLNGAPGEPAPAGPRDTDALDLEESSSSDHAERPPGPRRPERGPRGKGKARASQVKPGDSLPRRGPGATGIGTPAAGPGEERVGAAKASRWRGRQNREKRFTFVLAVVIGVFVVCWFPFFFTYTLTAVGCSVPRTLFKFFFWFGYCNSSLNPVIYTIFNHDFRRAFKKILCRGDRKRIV

[5] = biological target: hNET (Homo sapiens, UniProt P23975); assay: Radioligand binding, NET (N-methyl-[3H]nisoxetine); design: expressed in transfected cells; host or cells: HEK 293 (membrane preparation)
Sequence of hNET (P23975 whole entry): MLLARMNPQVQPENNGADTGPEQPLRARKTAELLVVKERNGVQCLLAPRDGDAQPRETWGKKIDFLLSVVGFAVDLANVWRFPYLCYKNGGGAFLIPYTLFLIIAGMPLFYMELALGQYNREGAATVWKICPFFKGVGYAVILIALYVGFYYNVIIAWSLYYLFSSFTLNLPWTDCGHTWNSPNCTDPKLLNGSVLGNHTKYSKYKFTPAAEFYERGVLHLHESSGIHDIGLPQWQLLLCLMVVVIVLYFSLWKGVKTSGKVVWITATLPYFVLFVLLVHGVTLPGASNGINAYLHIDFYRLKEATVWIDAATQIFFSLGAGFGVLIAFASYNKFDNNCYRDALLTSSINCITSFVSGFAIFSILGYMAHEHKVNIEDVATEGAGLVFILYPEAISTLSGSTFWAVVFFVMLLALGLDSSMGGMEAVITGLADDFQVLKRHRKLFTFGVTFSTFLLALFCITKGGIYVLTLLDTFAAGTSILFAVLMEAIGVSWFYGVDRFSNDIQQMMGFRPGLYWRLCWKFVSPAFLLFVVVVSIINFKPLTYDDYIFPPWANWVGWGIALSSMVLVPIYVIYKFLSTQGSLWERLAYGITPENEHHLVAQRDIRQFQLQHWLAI

[6] = biological target: T5, α1A adrenergic receptor (Homo sapiens, UniProt P35348); assay: Radioligand binding, α1A adrenergic receptor ([3H]prazosin)
T5 construct: expressed in transfected cells; host or cells: Chinese hamster ovary cell line (membrane preparation)
T5 sequence (P35348 1-466): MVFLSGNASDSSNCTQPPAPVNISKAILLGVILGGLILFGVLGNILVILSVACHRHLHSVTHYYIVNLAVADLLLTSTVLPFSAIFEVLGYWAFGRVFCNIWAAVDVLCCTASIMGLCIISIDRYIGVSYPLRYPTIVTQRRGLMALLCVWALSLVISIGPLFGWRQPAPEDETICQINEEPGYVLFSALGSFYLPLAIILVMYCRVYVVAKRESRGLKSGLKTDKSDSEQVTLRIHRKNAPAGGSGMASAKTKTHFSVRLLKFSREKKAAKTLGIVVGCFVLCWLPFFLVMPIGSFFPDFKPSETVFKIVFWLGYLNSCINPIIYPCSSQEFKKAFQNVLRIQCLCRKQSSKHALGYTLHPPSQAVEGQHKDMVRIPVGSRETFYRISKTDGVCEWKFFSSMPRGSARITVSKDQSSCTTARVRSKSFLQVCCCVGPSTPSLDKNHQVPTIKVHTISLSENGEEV

T1 sequence (Q923Y8 whole entry): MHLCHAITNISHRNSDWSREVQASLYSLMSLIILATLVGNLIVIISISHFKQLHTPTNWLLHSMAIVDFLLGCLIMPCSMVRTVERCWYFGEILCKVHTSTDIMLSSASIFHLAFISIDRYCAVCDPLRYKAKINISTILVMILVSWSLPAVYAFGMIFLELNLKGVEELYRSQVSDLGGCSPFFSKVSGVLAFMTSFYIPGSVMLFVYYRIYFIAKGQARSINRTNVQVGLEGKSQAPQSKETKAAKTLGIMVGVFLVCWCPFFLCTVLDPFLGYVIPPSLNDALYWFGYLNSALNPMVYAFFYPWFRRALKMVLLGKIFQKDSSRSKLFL

| SMILES | Ki [1] | Ki [2] | Ki [3] | Ki [4] | Ki [5] | Ki [6] | Enhancement of 5-HT2C binding affinity compared to TMA-2 (19) [2] | Increase in 5-HT2C binding affinity compared to MFEM (15) [2] | Reduction of 5-HT2C binding affinity compared to TMA-2 (19) [2] |
| --- | --- | --- | --- | --- | --- | --- | --- | --- | --- |
| CCOc1cc(OC)c(CCN)cc1OC [2C-O-2, 2,5-dimethoxy-4-ethoxyphenethylamine] | 4 ± 1.1 µM | 2.3 ± 1.2 µM | 3.6 ± 0.4 µM | 2.6 ± 0.1 µM | > 9.7 µM | > 6.5 µM | – | – | – |
| C=C(C)COc1cc(OC)c(CCN)cc1OC [2C-O-3, 2,5-dimethoxy-4-methallyloxyphenethylamine] | 1.1 ± 0.4 µM | 0.15 ± 0.03 µM | 2.7 ± 0.2 µM | 0.18 ± 0.01 µM | > 9.7 µM | > 6.5 µM | – | – | – |
| C=CCOc1cc(OC)c(CCN)cc1OC [2C-O-16, 4-allyloxy-2,5-dimethoxyphenethylamine] | 2.5 ± 1 µM | 0.47 ± 0.04 µM | 4.5 ± 0.5 µM | 0.62 ± 0.02 µM | > 9.7 µM | > 6.5 µM | – | – | – |
| COc1cc(OCCF)c(OC)cc1CCN [2C-O-21, 2,5-dimethoxy-4-(2-fluoroethoxy)phenethylamine] | > 4.9 µM | 3.6 ± 1.9 µM | 5.5 µM | 3.6 ± 0.5 µM | > 9.7 µM | > 6.5 µM | – | – | – |
| COc1cc(OCC(F)F)c(OC)cc1CCN [2C-O-21.5, 4-(2,2-difluoroethoxy)-2,5-dimethoxyphenethylamine] | > 4.8 µM | 4.2 ± 1.5 µM | 2.9 ± 0.2 µM | 1.9 ± 0.1 µM | > 9.7 µM | > 6.5 µM | – | – | – |
| COc1cc(OCC(F)(F)F)c(OC)cc1CCN [2C-O-22, 2,5-dimethoxy-4-(2,2,2-trifluoroethoxy)phenethylamine] | 2.5 ± 0.4 µM | 1.9 ± 0.4 µM | 3.3 ± 0.2 µM | 1.8 ± 0.1 µM | > 9.7 µM | > 6.5 µM | – | – | – |
| COc1cc(OCc2ccccc2)c(OC)cc1CCN [2C-O-27, 4-benzyloxy-2,5-dimethoxyphenethylamine] | 0.65 ± 0.19 µM | 0.11 ± 0.05 µM | 2.7 ± 0.1 µM | 0.57 ± 0.03 µM | > 9.7 µM | > 6.5 µM | – | – | – |
| C=CCOc1cc(OC)c(CC(C)N)cc1OC (stereo not shown) [MALM, 4-allyloxy-2,5-dimethoxyamphetamine] | 2 ± 0.4 µM | 0.9 ± 0.22 µM | > 5.6 µM | > 4.8 µM | > 9.7 µM | > 6.5 µM | 6 fold | – | – |
| COc1cc(OCC(F)F)c(OC)cc1CC(C)N (stereo not shown) [MDFEM, 4-(2,2-difluoroethoxy)-2,5-dimethoxyamphetamine] | > 4.8 µM | 6.7 ± 2.4 µM | > 5.6 µM | > 4.8 µM | > 9.7 µM | > 6.5 µM | – | 2 fold | – |
| COc1cc(OCCF)c(OC)cc1CC(C)N (stereo not shown) [MFEM, 2,5-dimethoxy-4-(2-fluoroethoxy)amphetamine] | > 4.9 µM | 11 ± 3 µM | > 5.6 µM | > 4.8 µM | > 9.7 µM | > 6.5 µM | – | – | – |
| COc1cc(OC(C)C)c(OC)cc1CC(C)N (stereo not shown) [MIPM, 2,5-dimethoxy-4-isopropoxyamphetamine] | > 4.8 µM | 9.03 ± 2.39 µM | > 5.6 µM | > 4.8 µM | > 9.7 µM | > 6.5 µM | – | – | 2 fold |
| C=C(C)COc1cc(OC)c(CC(C)N)cc1OC (stereo not shown) [MMALM, 2,5-dimethoxy-4-methallyloxyamphetamine] | 1.7 ± 0.9 µM | 0.29 ± 0.11 µM | – | 2.4 ± 0.2 µM | > 9.7 µM | > 6.5 µM | 18 fold | – | – |
| COc1cc(OCC(F)(F)F)c(OC)cc1CC(C)N (stereo not shown) [MTFEM, 2,5-dimethoxy-4-(2,2,2-trifluoroethoxy)amphetamine] | 4.5 ± 0.5 µM | 2.4 ± 0.8 µM | > 5.6 µM | > 4.8 µM | > 9.7 µM | > 6.5 µM | – | ~5 fold | – |

From paper PMC6893898, “Receptor Interaction Profiles of 4-Alkoxy-Substituted 2,5-Dimethoxyphenethylamines and Related Amphetamines” (Frontiers in Pharmacology, 2019)
